From patent US9096548B2, “Pyrazine amide compounds” (Boehringer Ingelheim International GmbH, priority 2013, dated 2015)

These molecules were tested against T1, ENaC (Epithelial Sodium Channel) (Mus musculus, UniProt Q61180+Q9WU38+Q9WU39) (assay: Ussing Chamber assay (short circuit current, amiloride sensitive I_SC)). Settings: Ussing chamber, mouse kidney M-1 cells, short circuit current, compound added to the apical solution; read-out: IC50.
T1 construct: Mouse kidney M−1 cells were cultivated in DMEM; endogenous in cells; host or cells: Mouse kidney M-1 cells, cultivated with dexamethasone on transwell filters
T1 sequence (Q61180 1-699): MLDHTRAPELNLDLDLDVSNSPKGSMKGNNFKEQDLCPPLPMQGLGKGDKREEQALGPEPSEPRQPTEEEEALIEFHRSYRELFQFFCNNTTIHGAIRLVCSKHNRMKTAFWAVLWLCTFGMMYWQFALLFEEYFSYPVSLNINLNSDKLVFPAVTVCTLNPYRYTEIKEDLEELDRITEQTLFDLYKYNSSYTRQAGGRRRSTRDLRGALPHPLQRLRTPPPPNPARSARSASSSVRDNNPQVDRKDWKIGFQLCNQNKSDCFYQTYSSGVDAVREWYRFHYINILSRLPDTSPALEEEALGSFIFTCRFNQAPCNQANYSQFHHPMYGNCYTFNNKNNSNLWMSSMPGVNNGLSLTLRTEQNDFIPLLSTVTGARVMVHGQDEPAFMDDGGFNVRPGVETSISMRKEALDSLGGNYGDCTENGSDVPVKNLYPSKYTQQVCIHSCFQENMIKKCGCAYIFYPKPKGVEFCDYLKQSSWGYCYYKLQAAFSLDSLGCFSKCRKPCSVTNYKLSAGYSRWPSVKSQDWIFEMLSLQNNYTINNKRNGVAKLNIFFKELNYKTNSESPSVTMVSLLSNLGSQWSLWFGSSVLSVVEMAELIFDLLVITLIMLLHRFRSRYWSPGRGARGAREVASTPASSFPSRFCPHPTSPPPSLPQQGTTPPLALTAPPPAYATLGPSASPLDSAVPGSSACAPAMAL
T1 sequence (Q9WU38 1-638): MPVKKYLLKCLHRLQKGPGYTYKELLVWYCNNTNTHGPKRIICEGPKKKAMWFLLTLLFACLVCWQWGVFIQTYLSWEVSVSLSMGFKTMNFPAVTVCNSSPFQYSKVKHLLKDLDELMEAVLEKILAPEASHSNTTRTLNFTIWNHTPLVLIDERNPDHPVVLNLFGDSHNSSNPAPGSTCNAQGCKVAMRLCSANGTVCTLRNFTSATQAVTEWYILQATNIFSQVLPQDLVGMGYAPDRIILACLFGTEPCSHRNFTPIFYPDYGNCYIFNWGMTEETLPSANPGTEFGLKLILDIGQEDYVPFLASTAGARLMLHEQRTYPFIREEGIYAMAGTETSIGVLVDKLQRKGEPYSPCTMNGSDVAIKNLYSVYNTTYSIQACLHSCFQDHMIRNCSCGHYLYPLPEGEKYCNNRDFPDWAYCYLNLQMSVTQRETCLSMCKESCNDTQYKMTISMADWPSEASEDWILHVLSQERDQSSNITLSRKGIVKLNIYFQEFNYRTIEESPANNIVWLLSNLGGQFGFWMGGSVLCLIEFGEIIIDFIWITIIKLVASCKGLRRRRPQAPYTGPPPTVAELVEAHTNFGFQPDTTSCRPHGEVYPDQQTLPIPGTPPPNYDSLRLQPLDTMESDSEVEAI
T1 sequence (Q9WU39 1-655): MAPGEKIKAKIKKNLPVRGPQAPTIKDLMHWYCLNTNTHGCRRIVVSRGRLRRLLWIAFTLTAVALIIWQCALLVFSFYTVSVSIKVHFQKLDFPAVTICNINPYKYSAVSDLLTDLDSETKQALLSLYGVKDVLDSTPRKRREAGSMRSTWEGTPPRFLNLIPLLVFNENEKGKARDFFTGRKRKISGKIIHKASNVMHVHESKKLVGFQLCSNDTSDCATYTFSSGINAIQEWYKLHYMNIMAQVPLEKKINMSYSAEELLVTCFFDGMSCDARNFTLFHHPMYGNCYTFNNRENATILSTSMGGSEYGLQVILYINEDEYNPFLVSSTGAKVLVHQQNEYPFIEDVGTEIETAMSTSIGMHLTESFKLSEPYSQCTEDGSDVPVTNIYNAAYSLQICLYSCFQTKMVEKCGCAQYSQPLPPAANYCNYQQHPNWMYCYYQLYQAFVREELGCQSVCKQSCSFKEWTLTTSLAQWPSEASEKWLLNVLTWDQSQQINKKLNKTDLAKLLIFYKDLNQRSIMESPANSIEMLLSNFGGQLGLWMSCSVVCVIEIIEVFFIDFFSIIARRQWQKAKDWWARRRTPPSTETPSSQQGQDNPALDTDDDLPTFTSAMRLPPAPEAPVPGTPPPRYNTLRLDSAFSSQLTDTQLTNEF
Assay type: cell-based
Protocol: The IC50 values of the example compounds given above were determined in the Ussing Chamber assay.
Ussing Chamber: Mouse kidney M−1 cells were cultivated in DMEM containing 5% FCS and 5 μM dexamethasone for 10 to 12 days on polyester transwell filters. Filters were inserted into a teflon-coated well-plate which fit into the ussing chamber system. Prior to measurement the medium of M−1 cells was replaced with Caco-2 transport buffer (Invitrogen, Germany). During measurements, the Ussing chamber temperature was kept at 37° C. Short circuit currents (I_sc) were measured in the voltage-clamp mode with the software package Lab View for data acquisition and analysis. The transepithelial electrical resistance (TEER) was determined by the application of voltage steps of ±5 mV every 5 sec. Compounds were administered at a final concentration of 3 μM or at increasing concentrations (1-3-10 μM) to the apical solution. At the end of each experiment the amiloride sensitive I_SC was measured by adding 3 μM amiloride to the apical compartment. Results are expressed as inhibition in percent of the amiloride effect or as IC50.
For `COc1ccc(CCC[N+](C)(CCCc2ccc(OC)cc2)C[C@H](C)NC(=O)c2nc(Cl)c(N)nc2N)cc1` [Example 2.2], the IC50 was 0.13 µM.
`C[N+](C)(C)CCNC(=O)COc1ccc(CCC[N+]2(CCCc3ccc(OCC(=O)NCC[N+](C)(C)C)cc3)CCC[C@H](NC(=O)c3nc(Cl)c(N)nc3N)C2)cc1` [Example 6.10] showed an IC50 of 0.068 µM.
`CN(C)CCCNC(=O)COc1ccc(CCC[N+]2(CCCc3ccc(OCC(=O)NCCCN(C)C)cc3)CCCC(NC(=O)c3nc(Cl)c(N)nc3N)C2)cc1` (stereo not drawn) [Example 6.7] was tested, and the IC50 was 0.031 µM.
Molecule `N#CCNC(=O)COc1ccc(CCC[N+]2(CCCc3ccc(OCC(=O)NCC#N)cc3)CCC[C@H](NC(=O)c3nc(Cl)c(N)nc3N)C2)cc1` [Example 6.31] has an IC50 of 0.018 µM.
Work on `Nc1nc(N)c(C(=O)N[C@H]2CCC[N+](CCCc3ccc(OCC(=O)NCc4ccncc4)cc3)(CCCc3ccc(OCC(=O)NCc4ccncc4)cc3)C2)nc1Cl` [Example 6.64] yielded an IC50 of 0.004 µM.
Work on `COc1ccc(CCC[N+]2(CCCc3ccc(OC)cc3)CCC[C@H](NC(=O)c3nc(Cl)c(N)nc3N)C2)cc1` [Example 1.4] yielded an IC50 of 0.004 µM.
In the case of `CN(Cc1cccnc1)C(=O)COc1ccc(CCC[N+]2(CCCc3ccc(OCC(=O)N(C)Cc4cccnc4)cc3)CCC[C@H](NC(=O)c3nc(Cl)c(N)nc3N)C2)cc1` [Example 6.27], the IC50 is reported as 0.017 µM.
Work on `CN1CCN(C(=O)COc2ccc(CCC[N+]3(CCCc4ccc(OCC(=O)N5CCN(C)CC5)cc4)CCC[C@H](NC(=O)c4nc(Cl)c(N)nc4N)C3)cc2)CC1` [Example 6.53] yielded an IC50 of 0.039 µM.
In the case of `COc1ccc(CCC[N+]2(CCCc3ccc(C(=O)N(CCCN(C)C)CCCN(C)C)cc3)CCCC(NC(=O)c3nc(Cl)c(N)nc3N)C2)cc1` (stereo not drawn) [Example 5.3], the IC50 is reported as 0.055 µM.
`Nc1nc(N)c(C(=O)N[C@H]2CCC[N+](CCCc3ccc(OCC(=O)NC(CO)c4cccnc4)cc3)(CCCc3ccc(OCC(=O)NC(CO)c4cccnc4)cc3)C2)nc1Cl` (stereo partly drawn) [Example 6.39] showed an IC50 of 0.011 µM.
In the case of `COC(=O)COc1ccc(CCC[N+]2(CCCc3ccc(OCC(=O)OC)cc3)CCC[C@H](NC(=O)c3nc(Cl)c(N)nc3N)C2)cc1` [Example 6.11], the IC50 is reported as 0.045 µM.
`CN1CCC(NC(=O)COc2ccc(CCC[N+]3(CCCc4ccc(OCC(=O)NC5CCN(C)C5=O)cc4)CCC[C@H](NC(=O)c4nc(Cl)c(N)nc4N)C3)cc2)C1=O` (stereo partly drawn) [Example 6.46] showed an IC50 of 0.083 µM.
`CS(=O)(=O)CCCNC(=O)COc1ccc(CCC[N+]2(CCCc3ccc(OCC(=O)NCCCS(C)(=O)=O)cc3)CCC[C@H](NC(=O)c3nc(Cl)c(N)nc3N)C2)cc1` [Example 6.43] showed an IC50 of 0.064 µM.
In the case of `COCCN(C)C(=O)COc1ccc(CCC[N+]2(CCCc3ccc(OCC(=O)N(C)CCOC)cc3)CCC[C@H](NC(=O)c3nc(Cl)c(N)nc3N)C2)cc1` [Example 6.16], the IC50 is reported as 0.042 µM.
For `COc1ccc(CCC[N+]2(CCCc3ccc(C(=O)NCCCS(=O)(=O)O)cc3)CCCC(NC(=O)c3nc(Cl)c(N)nc3N)C2)cc1` (stereo not drawn) [Example 5.4], the IC50 was 0.26 µM.
`COc1ccc(CCC[N+]2(CCCc3ccc(OC)cc3)CC(NC(=O)c3nc(Cl)c(N)nc3N)[C@H](c3ccc(C)cc3)C2)cc1` (stereo partly drawn) [Example 1.2] was tested, and the IC50 was 0.2 µM.
Work on `Nc1nc(N)c(C(=O)N[C@H]2CCC[N+](CCCc3ccc(OCC(=O)N4CCOCC4)cc3)(CCCc3ccc(OCC(=O)N4CCOCC4)cc3)C2)nc1Cl` [Example 6.58] yielded an IC50 of 0.072 µM.
`Nc1nc(N)c(C(=O)N[C@H]2CCC[N+](CCCc3ccc(OCC(=O)N(CCO)CCO)cc3)(CCCc3ccc(OCC(=O)N(CCO)CCO)cc3)C2)nc1Cl` [Example 6.66] gave an IC50 of 0.121 µM.
Work on `Nc1nc(N)c(C(=O)N[C@H]2CCC[N+](CCCc3ccc(OCC(=O)N4CCS(=O)(=O)CC4)cc3)(CCCc3ccc(OCC(=O)N4CCS(=O)(=O)CC4)cc3)C2)nc1Cl` [Example 6.24] yielded an IC50 of 0.047 µM.
`Nc1nc(N)c(C(=O)N[C@H]2CCC[N+](CCCc3ccc(OCC(=O)NCc4cccnc4)cc3)(CCCc3ccc(OCC(=O)NCc4cccnc4)cc3)C2)nc1Cl` [Example 6.57] showed an IC50 of 0.004 µM.
`COCCCNC(=O)COc1ccc(CCC[N+]2(CCCc3ccc(OCC(=O)NCCCOC)cc3)CCC[C@H](NC(=O)c3nc(Cl)c(N)nc3N)C2)cc1` [Example 6.60] showed an IC50 of 0.007 µM.

Same assay, conditions: Ussing chamber, mouse kidney M-1 cells, short circuit current; unit inferred; read-out: IC50
Work on `Nc1nc(N)c(C(=O)NC2CCC[N+](CCCc3ccc(OCCOCCOCCOCCOCCO)cc3)(CCCc3ccc(OCCOCCOCCOCCOCCO)cc3)C2)nc1Cl` (stereo not drawn) [Example 9.1, 3-[(3,5-Diamino-6-chloro-pyrazine-2-carbonyl)-amino]-1,1-bis-(3-{4-[2-(2-{2-[2-(2-hydroxy-ethoxy)-ethoxy]-ethoxy}-ethoxy)-ethoxy]-phenyl}-propyl)-piperidinium chloride] yielded an IC50 of 0.111 µM.
`Nc1nc(N)c(C(=O)NC2CCC[N+](CCCc3ccc(OCCOCCOCCO)cc3)(CCCc3ccc(OCCOCCOCCO)cc3)C2)nc1Cl` (stereo not drawn) [Example 9, 3-[(3,5-Diamino-6-chloro-pyrazine-2-carbonyl)-amino]-1,1-bis-[3-(4-{2-[2-(2-hydroxyethoxy)-ethoxy]-ethoxy}-phenyl)-propyl]-piperidinium chloride] showed an IC50 of 0.095 µM.
`COc1ccc(CCC[N+](C)(CCCc2ccc(OC)cc2)CC(NC(=O)c2nc(Cl)c(N)nc2N)c2ccccc2)cc1` (stereo not drawn) [Example 2, {2-[(3,5-Diamino-6-chloro-pyrazine-2-carbonyl)-amino]-2-phenyl-ethyl}-bis-[3-(4-methoxy-phenyl)-propyl]-methyl-ammonium chloride] gave an IC50 of 0.03 µM.

Same assay, conditions: Ussing chamber, mouse kidney M-1 cells, short circuit current; value printed in the example text with μM; read-out: IC50
`COc1ccc(CCC[N+]2(CCCc3ccc(C(=O)[O-])cc3)CCCC(NC(=O)c3nc(Cl)c(N)nc3N)C2)cc1` (stereo not drawn) [Example 5.1, 1-[3-(4-Carboxy-phenyl)-propyl]-3-[(3,5-diamino-6-chloro-pyrazine-2-carbonyl)-amino]-1-[3-(4-methoxy-phenyl)-propyl]-piperidinium] was tested, and the IC50 was 0.11 µM.
`Nc1nc(N)c(C(=O)NC2CCC[N+](CCCc3ccc(C(=O)[O-])cc3)(CCCc3ccc(C(=O)O)cc3)C2)nc1Cl` (stereo not drawn) [Example 4.1, 1,1-Bis-[3-(4-carboxy-phenyl)-propyl]-3-[(3,5-diamino-6-chloro-pyrazine-2-carbonyl)amino]-piperidinium] showed an IC50 of 0.35 µM.
For `COC(=O)c1ccc(CCC[N+]2(CCCc3ccc(C(=O)OC)cc3)CCCC(NC(=O)c3nc(Cl)c(N)nc3N)C2)cc1` (stereo not drawn) [Example 4, 3-[(3,5-Diamino-6-chloro-pyrazine-2-carbonyl)-amino]-1,1-bis-[3-(4-methoxycarbonylphenyl)-propyl]-piperidinium chloride], the IC50 was 0.34 µM.
